Reference: patent publication EP2435019B1, “DODECA-2E,4E-DIENE AMIDES AND THEIR USE AS MEDICAMENTS AND COSMETICS” (Dr. August Wolff GmbH & Co. KG Arzneimittel, priority 2009, dated 2010)
Read-outs that look alike come from different tables or passages of the source.

Key:
[1] = target: T1, CB1 (Homo sapiens, UniProt P21554); experiment: Radioligand displacement assay on CB1 receptor; type: binding
T1 construct: purchased Perkin Elmer RBHCB1M
Protocol: (§1) For the CB1 receptor, binding experiments were performed in the presence of 0.39 nM of the radioligand [^3H]CP55,940 (168 Ci/mmol) (Perkin Elmer, Waltham, MA, US) at 30°C in siliconized glass vials together with 7.16 µg of membrane recombinantly over-expressing CB1 (No. RBHCB1M, Perkin Elmer, Waltham, MA, US), which was resuspended in 0.2 mL (final volume) binding-buffer (50 mM TRIS-HCl, 2.5 mM EGTA, 5 mM MgCl2, 0.5 mg/mL fatty acid free BSA, pH 7.4). Test compounds were present at varying concentrations and the nonspecific binding of the radioligand was determined in the presence of 10 µM CP55,940 (Tocris Cookson Ltd., Bristol, UK). After 1.5 h incubation, the suspension was rapidly filtered through 0.05% polyethylenimine pre-soaked GF/C glass fiber filters on a 96-well cell harvester and washed nine times with 0.5 mL ice-cold washing-buffer (50 mM TRIS-HCl, 2.5 mM EGTA, 5 mM MgCl2, 2% BSA, pH 7.4). Radioactivity on filters was measured with a Beckman LS 6500 scintillation counter in 3 mL Ultima Gold scintillation liquid (Perkin Elmer, Waltham, MA, US). Data collected from three independent experiments performed in triplicates were normalized between 100% and 0% specific binding for [^3H]CP55,940. […] Derived from the dissociation constant (KD) of [^3H]CP55,940 and the concentration-dependent displacement (IC50 value), inhibition constants (Ki) of competitor compounds were calculated using the Cheng-Prusoff equation [Ki = IC50/(1+ L/KD)].

[2] = Critical micelle concentration (CMC) measurement, dye micellization; type: physicochemical; conditions: fluorescein dye micellization in water, pH 6.9, room temperature
Protocol: Dye micellization was carried out with a modified version of the method described by Eliyahu et al., Novel dextran-spermine conjugates as transfecting agents: comparing water-soluble and micellar polymers. […] Experiments were carried out on 96-well microtiter plates (excitation at 485 nm, emission at 535 nm). Since the emission of fluorescein is pH-dependent, the pH of the mixture was kept constant at 6.9. The CMC range was determined as the concentration range where the first statistically significant increase in fluorescence was detected.

[3] = target: T2, FAAH (Sus scrofa, UniProt Q9TUI8); experiment: Fatty acid amide hydrolase (FAAH) inhibition, pig brain homogenate (assay D); type: biochemical; conditions: 1 µM; pig brain homogenate (assay D)
T2 construct: 165 µl of diluted pig brain homogenate; from tissue; host or cells: pig brain homogenate
T2 sequence (Q9TUI8 1-579): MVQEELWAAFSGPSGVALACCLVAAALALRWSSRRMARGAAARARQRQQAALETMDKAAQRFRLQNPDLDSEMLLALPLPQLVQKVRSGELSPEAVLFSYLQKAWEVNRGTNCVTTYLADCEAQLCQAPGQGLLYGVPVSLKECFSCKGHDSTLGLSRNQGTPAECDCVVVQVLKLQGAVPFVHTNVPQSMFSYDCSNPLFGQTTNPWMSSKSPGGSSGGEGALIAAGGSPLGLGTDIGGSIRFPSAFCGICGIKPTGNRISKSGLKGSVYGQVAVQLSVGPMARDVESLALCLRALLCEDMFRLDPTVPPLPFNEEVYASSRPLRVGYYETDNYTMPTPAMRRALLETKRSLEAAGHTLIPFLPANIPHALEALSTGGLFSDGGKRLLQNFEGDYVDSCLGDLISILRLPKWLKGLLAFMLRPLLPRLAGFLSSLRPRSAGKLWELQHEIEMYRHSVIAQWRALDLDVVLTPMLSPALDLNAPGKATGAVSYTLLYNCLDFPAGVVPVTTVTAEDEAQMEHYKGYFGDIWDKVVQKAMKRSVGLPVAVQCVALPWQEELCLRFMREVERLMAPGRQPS
Protocol: FAAH activity was assessed using pig brain homogenate according to the method described by Omeir et al., Arachidonoyl ethanolamide-[1,2-14C] as a substrate for anandamide amidase. Life Sci. 1995;56(23-24):1999-2005, and adapted by Fowler et al., Ibuprofen inhibits rat brain deamidation of anandamide at pharmacologically relevant concentrations. Mode of inhibition and structure-activity relationship. J Pharmacol Exp Ther. 1997 Nov;283(2):729-34. Briefly, 10 µl of test compounds at the adequate concentration or solvent were incubated at 37°C for 20 min with 165 µl of diluted pig brain homogenate in 10 mM Tris-HCl and 1 mM EDTA, pH 7.6 (corresponding to 100 µg/ml of total protein), 1% w/v fatty acid free BSA (Sigma, San Louis, MO, US) and 25 µl of a mixture 1:1 of nonradioactive AEA [^3H]-AEA (60 Ci mmol^-1) (concentration in the assay was 2 µM). Successively, 400 µl of a mixture 1:1 (v/v) of methanol:chloroform was added at each sample and, after vigorous vortexing, aqueous and organic phases were separated by centrifugation at 10000 rpm for 10 min. The radioactivity associated to the [^3H]-ethanolamine (produced by FAAH-catalysed breakdown of [^3H]-AEA) was measured upon addition of 3 ml of Ultima Gold scintillation liquid (Perkin Elmer, Waltham, MA, US) to 200 µl of the aqueous (upper) phase, using a Beckman LS6500 scintillation counter. Results were expressed as % of FAAH activity vs. pig brain homogenate treated only with solvent.

[4] = system: Arachidonoylethanolamide Transport (AEAT); experiment: Cellular uptake of [3H]-AEA in U937 cells (assay C); type: cell-based; conditions: Homo sapiens, U-937; [3H]-AEA uptake, assay C (Tables 2 and 3)
[5] = target: T3, CB2 (Homo sapiens, UniProt P34972); conditions: read-out: affinity towards CB2 receptors, Ki; Gertsch, Planta Med. 2008; cited from earlier work
[6] = system: CB2 receptors; conditions: Woelkart, Planta Med. 2005; cited from earlier work
[7] = target: CB1 (Rattus norvegicus, UniProt P20272); conditions: Woelkart, Planta Med. 2005; cited from earlier work
[8] = system: FAAH; conditions: cited from earlier work
[9] = system: PGE2 production; conditions: at 50 µM; LaLone 2007; cited from earlier work
[10] = system: RAW264.7 mouse macrophage cells; conditions: at 50 µM; LaLone 2007; cited from earlier work
[11] = at 50 µM; Chen 2005; cited from earlier work
[12] = target: T3, CB2; experiment: Radioligand displacement assay on CB2 receptor; type: binding; set-up: purchased Perkin Elmer RBXCB2M
Protocol: as §1
For CB2-receptor binding studies 3.8 µg of membrane recombinantly over-expressing CB2 (No. RBXCB2M, Perkin Elmer, Waltham, MA, US) were resuspended in 0.6 mL binding buffer (see above) together with 0.11 nM of the radioligand [^3H]CP55,940. The CB2-binding assay was conducted in the same manner as for CB1.

T3 sequence (P34972 whole entry): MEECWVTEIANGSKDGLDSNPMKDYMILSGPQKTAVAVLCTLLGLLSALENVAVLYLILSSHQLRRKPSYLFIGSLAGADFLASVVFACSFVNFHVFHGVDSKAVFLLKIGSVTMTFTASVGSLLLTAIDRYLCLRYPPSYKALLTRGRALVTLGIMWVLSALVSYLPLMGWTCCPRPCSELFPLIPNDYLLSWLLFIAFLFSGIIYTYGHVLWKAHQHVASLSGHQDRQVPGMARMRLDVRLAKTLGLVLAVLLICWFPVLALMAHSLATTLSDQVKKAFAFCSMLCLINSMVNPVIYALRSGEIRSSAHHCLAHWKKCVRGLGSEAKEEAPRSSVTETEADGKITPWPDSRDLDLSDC
T1 sequence (P21554 whole entry): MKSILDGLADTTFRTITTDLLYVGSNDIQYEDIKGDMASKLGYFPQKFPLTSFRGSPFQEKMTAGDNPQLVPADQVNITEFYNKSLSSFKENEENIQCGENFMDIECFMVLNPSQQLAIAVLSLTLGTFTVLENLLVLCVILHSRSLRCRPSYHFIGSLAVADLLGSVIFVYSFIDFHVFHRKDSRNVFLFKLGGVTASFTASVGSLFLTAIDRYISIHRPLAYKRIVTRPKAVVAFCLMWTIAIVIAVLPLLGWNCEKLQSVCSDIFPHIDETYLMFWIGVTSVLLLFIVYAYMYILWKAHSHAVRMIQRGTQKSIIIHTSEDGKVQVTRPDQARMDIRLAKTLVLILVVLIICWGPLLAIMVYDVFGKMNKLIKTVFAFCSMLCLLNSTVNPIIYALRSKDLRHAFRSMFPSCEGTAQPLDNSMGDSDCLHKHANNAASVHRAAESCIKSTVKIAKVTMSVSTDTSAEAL
CB1 (Rattus norvegicus, UniProt P20272), sequence (P20272 whole entry): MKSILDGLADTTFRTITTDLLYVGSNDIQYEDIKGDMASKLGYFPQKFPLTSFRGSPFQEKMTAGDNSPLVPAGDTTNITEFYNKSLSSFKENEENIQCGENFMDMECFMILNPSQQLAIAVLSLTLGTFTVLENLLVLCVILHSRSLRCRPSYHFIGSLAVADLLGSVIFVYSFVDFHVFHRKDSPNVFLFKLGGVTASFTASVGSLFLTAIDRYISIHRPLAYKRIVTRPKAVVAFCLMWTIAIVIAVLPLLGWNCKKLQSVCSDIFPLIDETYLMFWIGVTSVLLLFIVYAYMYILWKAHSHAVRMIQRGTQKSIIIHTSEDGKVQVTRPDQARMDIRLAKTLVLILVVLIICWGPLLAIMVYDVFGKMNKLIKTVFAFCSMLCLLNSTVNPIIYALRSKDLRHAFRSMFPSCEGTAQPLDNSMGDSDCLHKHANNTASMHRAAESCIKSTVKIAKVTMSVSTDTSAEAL

For `CCCCCCC/C=C/C=C/C(=O)NCC(C)C` [Compound A, (2E,4E)-N-isobutyldodeca-2,4-diene amide], the Ki ([1]; displacement of 0.39 nM [3H]CP55,940, membrane recombinantly over-expressing CB1, read-out: Receptor affinity Ki CB1) was 1940 ± 213 nM, the “affinity towards CB1 (in words)” value ([1]; summary of Table 3) was “moderate affinity” and the CMC [2] was under 0.5 µM. For the same compound, the “FAAH inhibition at 1 µM” value [3] was <10 % of control, the EC50 [4] was over 10000 nM and the Ki [5] was under 100 nM. The “affinity to CB2 receptor” value [6] was “single digit micromolar range”, the “affinity to CB1 receptor” value [7] was “single digit micromolar range” and the “inhibition of FAAH” value ([8]; Gertsch, Planta Med. 2008) was “did not inhibit”. For the same compound, the “inhibition of FAAH” value ([8]; Woelkart, Planta Med. 2005) was “very weak inhibitor”, the PGE2 production [9] was “inhibiting” and the cytotoxicity [10] was “No significant cytotoxicity”. For the same compound, the cell death [11] was 50%, the Ki ([12]; displacement of 0.11 nM [3H]CP55,940, membrane recombinantly over-expressing CB2, read-out: Receptor affinity Ki CB2) was 60 ± 7 nM and the “affinity towards CB2 (in words)” value ([12]; summary of Table 3) was “high affinity”.
